Experimental data reported in patent publication US20230015949A1, “NEISSERIA TREATMENT USING CANNABINOIDS” (priority 2019, published 2023).
≈ marks a conversion by molar mass, not a printed value. Read-outs that look alike come from different tables or passages of the source.

Columns and labels:
[1] = tested on: Neisseria gonorrhoeae; settings: N. gonorrhoeae ATCC 49226; in parentheses in broth microdilution columns; ranges are for agar dilution testing; cited from earlier work
[2] = tested on: Staphylococcus aureus ATCC 29213; settings: S. aureus ATCC 29213, CLSI QC ranges shown in parentheses, cited from earlier work
[3] = tested on: Neisseria gonorrhoeae; assay: Agar dilution MIC assay, 25 isolates (Example 3); format: cell-based; settings: for Number of isolates at MIC 0.015 μg mL^−1 / Number of isolates at MIC 0.03 μg mL^−1 / Number of isolates at MIC 0.06 μg mL^−1 / Number of isolates at MIC 0.08 μg mL^−1 / Number of isolates at MIC 0.12 μg mL^−1 / Number of isolates at MIC 0.25 μg mL^−1 / Number of isolates at MIC 0.5 μg mL^−1 / Number of isolates at MIC 1 μg mL^−1 / Number of isolates at MIC 2 μg mL^−1 / Number of isolates at MIC 4 μg mL^−1 / Number of isolates at MIC 8 μg mL^−1 / Number of isolates at MIC >8 μg mL^−1 / Number of isolates at MIC ≤0.004 μg mL^−1: 25 isolates, agar dilution assay, MIC distribution; for MIC / MIC50 / MIC90: Neisseria gonorrhoeae, agar dilution; for MIC50 / MIC90: 25 isolates of N. gonorrhoeae
Procedure: The MIC of Neisseria gonorrhoea was established using an agar dilution MIC assay.
Test drugs were provided by Micromyx. All stock solutions were allowed to stand for at least 1 hr prior to use to auto-sterilize. Leftover stock solutions of comparator drugs were aliquoted and stored at −80° C. Suppliers, catalog/lot numbers, solvents, stock concentrations and testing ranges were as follows.
Test organisms were reference strains from the American Type Culture Collection (ATCC; Manassas, Va.), isolates from WHO, isolates from the CDC antibiotic resistance bank, and clinical isolates from the Micromyx (MMX) repository. Upon receipt at Micromyx, the isolates were streaked under suitable conditions onto agar medium appropriate to each organism and were incubated for 24-48 hr at 35° C. Colonies harvested from these growth plates were resuspended in the appropriate medium containing a cryoprotectant. Aliquots of each suspension were then frozen at −80° C.
Prior to testing, the isolates were sub-cultured onto Chocolate agar (Becton Dickenson [BD]/BBL; Sparks, Md., Cat. No. 221267, Lot No. 9346275) and placed at 35° C. in a CO2 incubator for 24 hrs.
MIC values were determined using the agar dilution method (1, 2). All serial dilutions and liquid handling were performed by hand using sterile pipettes. […] Cannabidiol was prepared as a stock solution at 100× the final concentration in the appropriate solvent and diluted according to CLSI guidelines.
Each test agent was mixed with molten (50-55° C.) GC media agar supplemented with 1% IsoVitalex. […] All other test agents were added to the medium in a ratio of 0.2 mL 100× test agent to 19.8 mL agar. Once test agents were added to the agar in a sterile tube, they were mixed gently and then poured into a sterile 110×15 mm petri dish. Plates were allowed to solidify at room temperature and placed in a laminar air flow hood with the covers off to remove condensed moisture on the agar surface.
Next, each isolate was suspended to the equivalent of a 0.5 McFarland standard in saline using a Siemens Microscan turbidity meter and diluted 1:10. Each bacterial cell suspension was then transferred to wells in a stainless-steel replicator block. The prongs on the replicator deliver approximately 1-2 μl of inoculum to an agar surface. The resulting inoculum spots contained approximately 10^4 cells/spot.
Each agar plate containing either test compound or no drug (control) was stamped with the replicator. All plates were placed with the agar surface up to allow for the inoculum to soak into the agar. The plates were inverted and incubated at 35° C. for 24 hrs in a CO2 incubator and finally inspected for growth.

[4] = ATCC49226, N. gonorrhoeae ATCC 49226 (QC)
[5] = N. gonorrhoeae MMX 10409 (CIP-R)
[6] = NCTC13477, N. gonorrhoeae NCTC 13477 (WHO F)
[7] = NCTC13478, N. gonorrhoeae NCTC 13478 (WHO G)
[8] = NCTC13479, N. gonorrhoeae NCTC 13479 (WHO K)
[9] = NCTC13480, N. gonorrhoeae NCTC 13480 (WHO L)
[10] = NCTC13481, N. gonorrhoeae NCTC 13481 (WHO M)
[11] = NCTC13482, N. gonorrhoeae NCTC 13482 (WHO N)
[12] = NCTC13483, N. gonorrhoeae NCTC 13483 (WHO O)
[13] = NCTC13817, N. gonorrhoeae NCTC 13817 (WHO U)
[14] = NCTC13818, N. gonorrhoeae NCTC 13818 (WHO V)
[15] = NCTC13819, N. gonorrhoeae NCTC 13819 (WHO W)
[16] = NCTC13820, N. gonorrhoeae NCTC 13820 (WHO X)

CC[C@H]1OC(=O)[C@H](C)[C@@H](O[C@H]2C[C@@](C)(OC)[C@@H](O)[C@H](C)O2)[C@H](C)[C@@H](O[C@@H]2O[C@H](C)C[C@H](N(C)C)[C@H]2O)[C@](C)(O)C[C@@H](C)CN(C)[C@H](C)[C@@H](O)[C@]1(C)O [AZI, azithromycin]
CLSI QC range of MIC [1]: 0.25 to 1 µg/mL
CLSI QC range of MIC [2]: 0.5 to 2 µg/mL
CLSI QC range of MIC ([2]; listed as Azithromycin): (0.5-2)^1 μg/mL

C=C(C)C1CCC(C)=CC1c1c(O)cc(CCCCC)cc1O (stereo not drawn) [CBD, 2-[3-methyl-6-(1-methylethenyl)-2-cyclohexen-1-yl]-5-pentyl-1,3-benzenediol]
Number of isolates at MIC 0.015 μg mL^−1 [3]: 0
Number of isolates at MIC 0.03 μg mL^−1 [3]: 0
Number of isolates at MIC 0.06 μg mL^−1 [3]: 0
Number of isolates at MIC 0.08 μg mL^−1 [3]: 0
Number of isolates at MIC 0.12 μg mL^−1 [3]: 0
Number of isolates at MIC 0.25 μg mL^−1 [3]: 0
Number of isolates at MIC 0.5 μg mL^−1 [3]: 2
Number of isolates at MIC 1 μg mL^−1 [3]: 14
Number of isolates at MIC 2 μg mL^−1 [3]: 9
Number of isolates at MIC 4 μg mL^−1 [3]: 0
Number of isolates at MIC 8 μg mL^−1 [3]: 0
Number of isolates at MIC >8 μg mL^−1 [3]: 0
Number of isolates at MIC ≤0.004 μg mL^−1 [3]: 0
MIC [3, 4]: 2 µg/mL (≈ 6.36 µM)
MIC ([3]; N. gonorrhoeae CDC0165): 2 µg/mL (≈ 6.36 µM)
MIC ([3]; N. gonorrhoeae CDC0166): 9 µg/mL (≈ 28.6 µM)
MIC ([3]; N. gonorrhoeae CDC0167): 1 µg/mL (≈ 3.18 µM)
MIC ([3]; N. gonorrhoeae CDC 0172): 7 µg/mL (≈ 22.3 µM)
MIC ([3]; N. gonorrhoeae CDC 0175): 1 µg/mL (≈ 3.18 µM)
MIC ([3]; N. gonorrhoeae CDC 0177): 1 µg/mL (≈ 3.18 µM)
MIC ([3]; N. gonorrhoeae CDC 0178): 2 µg/mL (≈ 6.36 µM)
MIC ([3]; N. gonorrhoeae CDC 0180): 7 µg/mL (≈ 22.3 µM)
MIC ([3]; N. gonorrhoeae CDC 0181): 0.5 µg/mL (≈ 1.59 µM)
MIC ([3]; N. gonorrhoeae CDC 0194): 1 µg/mL (≈ 3.18 µM)
MIC ([3]; N. gonorrhoeae CDCO174): 2 µg/mL (≈ 6.36 µM)
MIC [3, 5]: 1 µg/mL (≈ 3.18 µM)
MIC [3, 6]: 1 µg/mL (≈ 3.18 µM)
MIC [3, 7]: 1 µg/mL (≈ 3.18 µM)
MIC [3, 8]: 0.5 µg/mL (≈ 1.59 µM)
MIC [3, 9]: 2 µg/mL (≈ 6.36 µM)
MIC [3, 10]: 1 µg/mL (≈ 3.18 µM)
MIC [3, 11]: 1 µg/mL (≈ 3.18 µM)
MIC [3, 12]: 1 µg/mL (≈ 3.18 µM)
MIC ([3]; NCTC13484, N. gonorrhoeae NCTC 13484 (WHO P)): 7 µg/mL (≈ 22.3 µM)
MIC [3, 13]: 1 µg/mL (≈ 3.18 µM)
MIC [3, 14]: 1 µg/mL (≈ 3.18 µM)
MIC [3, 15]: 1 µg/mL (≈ 3.18 µM)
MIC [3, 16]: 1 µg/mL (≈ 3.18 µM)
MIC50 [3]: 1 µg/mL (≈ 3.18 µM)
MIC90 [3]: 2 µg/mL (≈ 6.36 µM)

CO/N=C(\C(=O)N[C@@H]1C(=O)N2C(C(=O)O)=C(CSc3nc(=O)c(=O)[nH]n3C)CS[C@H]12)c1csc(N)n1 [CRO, ceftriaxone]
CLSI QC range of MIC [2]: 1 to 8 µg/mL
CLSI QC range of MIC ([2]; listed as Ceftriaxone): (1-8)^1 μg/mL
Number of isolates at MIC 0.015 μg mL^−1 [3]: 6
Number of isolates at MIC 0.03 μg mL^−1 [3]: 1
Number of isolates at MIC 0.06 μg mL^−1 [3]: 6
Number of isolates at MIC 0.08 μg mL^−1 [3]: 5
Number of isolates at MIC 0.12 μg mL^−1 [3]: 1
Number of isolates at MIC 0.25 μg mL^−1 [3]: 2
Number of isolates at MIC 0.5 μg mL^−1 [3]: 0
Number of isolates at MIC 1 μg mL^−1 [3]: 0
Number of isolates at MIC 2 μg mL^−1 [3]: 1
Number of isolates at MIC 4 μg mL^−1 [3]: 0
Number of isolates at MIC 8 μg mL^−1 [3]: 0
Number of isolates at MIC >8 μg mL^−1 [3]: 0
Number of isolates at MIC ≤0.004 μg mL^−1 [3]: 3
MIC [3, 4]: 0.015 µg/mL (≈ 0.027 µM)
MIC ([3]; N. gonorrhoeae CDC0165): 0.06 µg/mL (≈ 0.108 µM)
MIC ([3]; N. gonorrhoeae CDC0167): 0.004 µg/mL (≈ 0.00721 µM)
MIC ([3]; N. gonorrhoeae CDC 0175): 0.008 µg/mL (≈ 0.0144 µM)
MIC ([3]; N. gonorrhoeae CDC 0177): 0.015 µg/mL (≈ 0.027 µM)
MIC ([3]; N. gonorrhoeae CDC 0178): 0.06 µg/mL (≈ 0.108 µM)
MIC ([3]; N. gonorrhoeae CDC 0181): 0.008 µg/mL (≈ 0.0144 µM)
MIC ([3]; N. gonorrhoeae CDC 0194): 0.25 µg/mL (≈ 0.451 µM)
MIC ([3]; N. gonorrhoeae CDCO174): 0.06 µg/mL (≈ 0.108 µM)
MIC [3, 5]: 0.06 µg/mL (≈ 0.108 µM)
MIC [3, 6]: < 0.004 µg/mL
MIC [3, 7]: 0.015 µg/mL (≈ 0.027 µM)
MIC [3, 8]: 0.015 µg/mL (≈ 0.027 µM)
MIC [3, 9]: 0.25 µg/mL (≈ 0.451 µM)
MIC [3, 10]: 0.008 µg/mL (≈ 0.0144 µM)
MIC [3, 11]: 0.008 µg/mL (≈ 0.0144 µM)
MIC [3, 12]: 0.015 µg/mL (≈ 0.027 µM)
MIC [3, 13]: 0.002 µg/mL (≈ 0.00361 µM)
MIC [3, 14]: 0.015 µg/mL (≈ 0.027 µM)
MIC [3, 15]: 0.12 µg/mL (≈ 0.216 µM)
MIC [3, 16]: 2 µg/mL (≈ 3.61 µM)
MIC50 [3]: 0.015 µg/mL (≈ 0.027 µM)
MIC90 [3]: 0.25 µg/mL (≈ 0.451 µM)
